In patent publication US11673866B2, “Estrogen receptor beta ligands for the prevention and treatment of multiple sclerosis (MS) and other demyelinating, inflammatory and neurodegenerative diseases” (The Board of Trustees of the University of Illinois, priority 2018, dated 2023):
Entries after “also recorded” stand apart in the source; their conditions may differ.

Columns and labels:
[1] = system: EAE mice; experiment: Rotarod behavioral assay in EAE mice; format: in vivo, mouse; parameters: key to Disability: Rotarod performance: ‘+’ indicate marker was significantly (p ≤ 0.05) increased in treatment group relative to vehicle; ‘−’ indicates marker was significantly (p ≤ 0.05) decreased in treatment group relative to vehicle; ○: ‘o’ indicate marker did not change relative to vehicle; conditions: for Disability: Rotarod performance: vs vehicle; for rotarod performance (motor function): therapeutic s.c. from day 8 (postEAE)
Procedure: Rotarod behavioral assay: Motor behavior was tested up to two times per week for each mouse using a rotarod apparatus (Med Associates, Inc., St. Albans, Vt.). Briefly, animals were placed on a rotating horizontal cylinder for a maximum of 200 seconds. The amount of time the mouse remained walking on the cylinder without falling was recorded. Each mouse was tested on a speed of 3-30 rpm and given three trials for any given day. The three trials were averaged to report a single value for an individual mouse, and averages were then calculated for all animals within a given treatment group (Moore et al., 2014). The first two trial days prior to immunization served as practice trials.
As a complementary assay of motor function, mice were tested on a rotarod device following a previously described protocol (Moore et al., 2014). […] (FIG. 2B).

[2] = system: MOG35-55-stimulated splenocytes; experiment: Cytokine and chemokine production by splenocytes from EAE mice (Luminex); format: in vivo, mouse; parameters: key to Peripheral Inflammatory Cytokines: IFNγ / Peripheral Inflammatory Cytokines: IL-lβ / Peripheral Inflammatory Cytokines: IL-2 / Peripheral Inflammatory Cytokines: IL-6 / Peripheral Inflammatory Cytokines: IL-17 / Peripheral Inflammatory Cytokines: TNFα / Peripheral Th2 & Anti-inflammatory Cytokines: IL-4 / Peripheral Th2 & Anti-inflammatory Cytokines: IL-5 / Peripheral Th2 & Anti-inflammatory Cytokines: IL-10 / Peripheral Th2 & Anti-inflammatory Cytokines: IL-13 / Peripheral Chemokines: CXCL1 / Peripheral Chemokines: CXCL10: ‘+’ indicate marker was significantly (p ≤ 0.05) increased in treatment group relative to vehicle; ‘−’ indicates marker was significantly (p ≤ 0.05) decreased in treatment group relative to vehicle; ○: ‘o’ indicate marker did not change relative to vehicle; conditions: for Peripheral Chemokines: CXCL1 / Peripheral Chemokines: CXCL10 / Peripheral Inflammatory Cytokines: IFNγ / Peripheral Inflammatory Cytokines: IL-2 / Peripheral Inflammatory Cytokines: IL-6 / Peripheral Inflammatory Cytokines: IL-17 / Peripheral Inflammatory Cytokines: IL-lβ / Peripheral Inflammatory Cytokines: TNFα / Peripheral Th2 & Anti-inflammatory Cytokines: IL-4 / Peripheral Th2 & Anti-inflammatory Cytokines: IL-5 / Peripheral Th2 & Anti-inflammatory Cytokines: IL-10 / Peripheral Th2 & Anti-inflammatory Cytokines: IL-13: vs vehicle
Procedure: Splenocyte Isolation & Cytokine Analysis: On day 20-21 after induction of EAE, spleens were harvested prior to transcardial perfusion. Spleens were dissected from anesthetized mice and mechanically dissociated into a single cell suspension in cold RPMI 1640 supplemented with pyruvate, L-glutamine, and 10% fetal bovine serum (henceforth referred to as RPMI). Red blood cells were lysed by incubation with ACK buffer (VWR), washed, counted, and resuspended in RPMI for cytokine analysis. Splenocytes were then stimulated with 25 μg/ml MOG35-55 and supernatants were collected 48 hours later (Khalaj et al., 2013; Moore et al., 2013). Levels of the anti-inflammatory cytokines: IL-10, IL-13, IL-4 and IL-5; pro-inflammatory cytokines IFNγ, IL-17, IL-1β TNFα, IL-6 and IL-2; and chemokines: CXCL1, CXCL10 were determined by Cytokine Mouse Magnetic Panel for Luminex (Thermo Fisher Scientific; Waltham, Mass.) and run on the xMAP MAGPIX 100™ instrument (Luminex Corporation, Austin, Tx) according to manufacturer's instructions.
During MS and EAE, peripherally activated leukocytes secrete inflammatory cytokines and chemokines as they migrate into the CNS, where they contribute to demyelination and axon damage (Fletcher et al., 2010). To characterize the effects of IndCl analogues on the peripheral immune response, splenocytes were isolated from mice 21 days post-immunization and stimulated ex vivo with MOG35-55 peptide for cytokine and chemokine analysis using a magnetic bead-based 20-plex cytokine/chemokine detection assay. Cytokines related to inflammation, CD4+ T cell polarization, immune regulation, and chemokines associated with OL apoptosis and myelination that were measured in collected supernatants are presented below.

[3] = Post (therapeutic, postEAE) treatment of EAE mice
[4] = Pre (prophylactic, preEAE) E2 treatment of EAE mice
[5] = prophylactic E2 (preEAE), day 21, vs vehicle
[6] = therapeutic treatment (postEAE), day 21, vs vehicle

Row | Compound | Disability: Rotarod performance [1, 3] | Peripheral Chemokines: CXCL1 [2, 3] | Peripheral Chemokines: CXCL10 [2, 3] | Peripheral Inflammatory Cytokines: IFNγ [2, 3] | Peripheral Inflammatory Cytokines: IL-2 [2, 3] | Peripheral Inflammatory Cytokines: IL-6 [2, 3] | Peripheral Inflammatory Cytokines: IL-17 [2, 3] | Peripheral Inflammatory Cytokines: IL-lβ [2, 3] | Peripheral Inflammatory Cytokines: TNFα [2, 3] | Peripheral Th2 & Anti-inflammatory Cytokines: IL-4 [2, 3] | Peripheral Th2 & Anti-inflammatory Cytokines: IL-5 [2, 3] | Peripheral Th2 & Anti-inflammatory Cytokines: IL-10 [2, 3] | Peripheral Th2 & Anti-inflammatory Cytokines: IL-13 [2, 3] | rotarod performance (motor function) [1] | IFNγ production by splenocytes [2, 6] | IL-6 production by splenocytes [2, 6] | IL-13 production by splenocytes [2, 6] | other results
1 | C[C@]12CC[C@@H]3c4ccc(O)cc4CC[C@H]3[C@@H]1CC[C@@H]2O [E2, 170 estradiol] | ○ | + | − | − | ○ | − | − | ○ | ○ | ○ | ○ | ○ | ○ |  |  |  |  | Disability: Rotarod performance [1, 4]: +; Peripheral Chemokines: CXCL1 [2, 4]: +; Peripheral Chemokines: CXCL10 [2, 4]: −; Peripheral Inflammatory Cytokines: IFNγ [2, 4]: −; Peripheral Inflammatory Cytokines: IL-2 [2, 4]: −; Peripheral Inflammatory Cytokines: IL-6 [2, 4]: −; Peripheral Inflammatory Cytokines: IL-17 [2, 4]: −; Peripheral Inflammatory Cytokines: IL-lβ [2, 4]: ○; Peripheral Inflammatory Cytokines: TNFα [2, 4]: ○; Peripheral Th2 & Anti-inflammatory Cytokines: IL-4 [2, 4]: ○; Peripheral Th2 & Anti-inflammatory Cytokines: IL-5 [2, 4]: ○; Peripheral Th2 & Anti-inflammatory Cytokines: IL-10 [2, 4]: ○; Peripheral Th2 & Anti-inflammatory Cytokines: IL-13 [2, 4]: ○; IL-1β production by splenocytes [2, 5]: no effect; TNFα production by splenocytes [2, 5]: no effect
2 | Oc1ccc(-n2nc3ccc(O)cc3c2Cl)cc1 [IndCl, chloroindazole] | ○ | + | − | − | ○ | ○ | ○ | + | ○ | ○ | ○ | ○ | ○ | had a tendency to fall from the cylinder abruptly | significantly decreased |  |  | CXCL1 production by splenocytes [2, 6]: increased; CXCL10 production by splenocytes [2, 6]: decreased; IL-1β production by splenocytes [2, 6]: increased; Th2 (IL-4, IL-5, IL-13) and IL-10 cytokine production by splenocytes [2, 6]: no effect
3 | Oc1ccc(-n2nc3ccc(O)cc3c2Cl)c(Cl)c1 [IndCl-o-Cl, 3-chloro-2-(2-chloro-4-hydroxyphenyl)-2H-indazol-5-ol] | + | + | − | − | ○ | − | − | ○ | ○ | ○ | ○ | ○ | − | increase of EAE mice remaining on the rotarod; also recorded: improved rotarod performance | significantly decreased | significantly decreased | attenuated | IFNγ production by splenocytes ([2]; therapeutic treatment (postEAE), day 21, vs vehicle, listed as o-Cl): decreased
4 | Cc1cc(O)ccc1-n1nc2ccc(O)cc2c1Cl [IndCl-o-Me, 3-chloro-2-(4-hydroxy-2-methylphenyl)-2H-indazol-5-ol] | + | + | − | − | ○ | − | − | ○ | ○ | ○ | ○ | ○ | − | improved rotarod performance; also recorded: greatest improvement in motor function | significantly decreasing | significantly decreasing | attenuated | IL-17 production by splenocytes [2, 6]: significantly decreasing; also recorded: reducing; IFNγ production by splenocytes ([2]; therapeutic treatment (postEAE), day 21, vs vehicle, listed as o-Me): decreased
